Measured values as given in ChEMBL document CHEMBL5653631, “A Potent and Selective ULK1 Inhibitor Suppresses Autophagy and Sensitizes Cancer Cells to Nutrient Stress” (iScience, 2018).

Tests used:
[1] = molecular target: Epithelial discoidin domain-containing receptor 1 (Homo sapiens) (UniProt Q08345); assay: Inhibition of human recombinant DDR1 at 40 nM related to control ULK1
[2] = molecular target: T1, Serine/threonine-protein kinase Nek2 (Homo sapiens) (UniProt P51955); assay: Inhibition of human recombinant NEK2 at 15 nM in presence of ATP by radiometric assay relative to control
T1 sequence (whole entry): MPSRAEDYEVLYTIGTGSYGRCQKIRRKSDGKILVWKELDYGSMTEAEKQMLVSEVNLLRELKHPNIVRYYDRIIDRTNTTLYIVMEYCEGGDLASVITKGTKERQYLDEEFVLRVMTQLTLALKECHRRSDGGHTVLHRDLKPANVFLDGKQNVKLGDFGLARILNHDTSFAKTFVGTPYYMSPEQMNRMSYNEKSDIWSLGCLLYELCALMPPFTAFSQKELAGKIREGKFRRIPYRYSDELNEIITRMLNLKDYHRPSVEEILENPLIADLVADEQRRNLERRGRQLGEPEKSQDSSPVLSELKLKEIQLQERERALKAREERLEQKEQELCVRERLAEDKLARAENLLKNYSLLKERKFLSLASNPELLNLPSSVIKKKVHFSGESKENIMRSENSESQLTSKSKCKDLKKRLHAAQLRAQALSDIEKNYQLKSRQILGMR

[3] = molecular target: Serine/threonine-protein kinase MARK2 (Homo sapiens) (UniProt Q7KZI7); assay: Inhibition of human recombinant MARK2 at 15 nM related to control ULK1
Serine/threonine-protein kinase MARK2 (Homo sapiens), sequence (Q7KZI7 whole entry): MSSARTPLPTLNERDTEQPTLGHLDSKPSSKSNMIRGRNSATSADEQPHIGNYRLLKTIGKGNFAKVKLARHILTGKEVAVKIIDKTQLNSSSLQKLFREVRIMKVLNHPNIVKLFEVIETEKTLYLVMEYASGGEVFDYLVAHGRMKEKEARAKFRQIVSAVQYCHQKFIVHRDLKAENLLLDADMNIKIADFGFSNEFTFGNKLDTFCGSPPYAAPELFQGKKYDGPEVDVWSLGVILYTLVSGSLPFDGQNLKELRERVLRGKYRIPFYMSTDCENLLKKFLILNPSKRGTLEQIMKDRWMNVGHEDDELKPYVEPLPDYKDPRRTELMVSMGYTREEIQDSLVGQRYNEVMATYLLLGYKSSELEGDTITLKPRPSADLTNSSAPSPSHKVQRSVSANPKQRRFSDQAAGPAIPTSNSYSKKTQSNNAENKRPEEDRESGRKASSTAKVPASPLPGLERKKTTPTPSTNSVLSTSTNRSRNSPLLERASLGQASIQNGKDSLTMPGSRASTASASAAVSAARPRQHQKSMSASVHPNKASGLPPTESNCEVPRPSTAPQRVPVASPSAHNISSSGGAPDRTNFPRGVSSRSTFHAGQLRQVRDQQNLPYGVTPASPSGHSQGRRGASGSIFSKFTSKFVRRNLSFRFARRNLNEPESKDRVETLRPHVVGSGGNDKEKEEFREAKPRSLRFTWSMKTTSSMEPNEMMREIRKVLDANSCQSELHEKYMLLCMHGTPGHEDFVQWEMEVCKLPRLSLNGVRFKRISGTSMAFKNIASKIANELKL

[4] = molecular target: T2, Eukaryotic translation initiation factor 2-alpha kinase 3 (Homo sapiens) (UniProt Q9NZJ5); assay: Inhibition of human recombinant PEK at 15 nM related to control ULK1
T2 sequence (whole entry): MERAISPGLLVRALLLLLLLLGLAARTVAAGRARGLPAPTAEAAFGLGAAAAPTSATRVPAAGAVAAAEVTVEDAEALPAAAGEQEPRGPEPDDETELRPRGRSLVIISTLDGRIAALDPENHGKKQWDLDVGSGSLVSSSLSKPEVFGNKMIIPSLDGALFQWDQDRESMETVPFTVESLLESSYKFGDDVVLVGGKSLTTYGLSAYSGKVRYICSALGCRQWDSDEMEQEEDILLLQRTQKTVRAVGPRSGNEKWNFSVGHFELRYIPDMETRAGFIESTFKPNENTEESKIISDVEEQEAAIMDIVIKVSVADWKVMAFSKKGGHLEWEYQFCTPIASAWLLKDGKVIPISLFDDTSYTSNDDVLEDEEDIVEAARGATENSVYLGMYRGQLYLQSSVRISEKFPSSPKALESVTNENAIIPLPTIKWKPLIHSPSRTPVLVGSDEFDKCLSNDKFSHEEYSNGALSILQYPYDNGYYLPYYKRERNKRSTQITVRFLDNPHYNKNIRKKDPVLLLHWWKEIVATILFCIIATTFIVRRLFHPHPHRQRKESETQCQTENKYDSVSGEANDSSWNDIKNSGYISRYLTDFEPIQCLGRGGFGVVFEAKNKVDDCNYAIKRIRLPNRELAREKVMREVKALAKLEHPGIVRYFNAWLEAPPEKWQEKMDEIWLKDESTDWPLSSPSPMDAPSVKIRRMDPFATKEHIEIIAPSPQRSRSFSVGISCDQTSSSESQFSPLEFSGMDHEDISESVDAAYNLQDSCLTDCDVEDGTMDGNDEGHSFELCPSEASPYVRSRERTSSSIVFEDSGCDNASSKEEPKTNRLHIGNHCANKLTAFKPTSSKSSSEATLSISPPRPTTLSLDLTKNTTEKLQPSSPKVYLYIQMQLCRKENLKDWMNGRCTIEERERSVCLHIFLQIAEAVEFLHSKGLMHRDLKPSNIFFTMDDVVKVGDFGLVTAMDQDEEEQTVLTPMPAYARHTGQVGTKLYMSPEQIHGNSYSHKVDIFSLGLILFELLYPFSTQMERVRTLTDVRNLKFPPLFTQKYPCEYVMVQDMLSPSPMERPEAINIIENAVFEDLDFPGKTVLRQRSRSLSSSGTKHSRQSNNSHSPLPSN

[5] = molecular target: Proto-oncogene tyrosine-protein kinase receptor Ret (Homo sapiens) (UniProt P07949); assay: Inhibition of human recombinant RET at 15 nM related to control ULK1
Proto-oncogene tyrosine-protein kinase receptor Ret (Homo sapiens), sequence (P07949 whole entry): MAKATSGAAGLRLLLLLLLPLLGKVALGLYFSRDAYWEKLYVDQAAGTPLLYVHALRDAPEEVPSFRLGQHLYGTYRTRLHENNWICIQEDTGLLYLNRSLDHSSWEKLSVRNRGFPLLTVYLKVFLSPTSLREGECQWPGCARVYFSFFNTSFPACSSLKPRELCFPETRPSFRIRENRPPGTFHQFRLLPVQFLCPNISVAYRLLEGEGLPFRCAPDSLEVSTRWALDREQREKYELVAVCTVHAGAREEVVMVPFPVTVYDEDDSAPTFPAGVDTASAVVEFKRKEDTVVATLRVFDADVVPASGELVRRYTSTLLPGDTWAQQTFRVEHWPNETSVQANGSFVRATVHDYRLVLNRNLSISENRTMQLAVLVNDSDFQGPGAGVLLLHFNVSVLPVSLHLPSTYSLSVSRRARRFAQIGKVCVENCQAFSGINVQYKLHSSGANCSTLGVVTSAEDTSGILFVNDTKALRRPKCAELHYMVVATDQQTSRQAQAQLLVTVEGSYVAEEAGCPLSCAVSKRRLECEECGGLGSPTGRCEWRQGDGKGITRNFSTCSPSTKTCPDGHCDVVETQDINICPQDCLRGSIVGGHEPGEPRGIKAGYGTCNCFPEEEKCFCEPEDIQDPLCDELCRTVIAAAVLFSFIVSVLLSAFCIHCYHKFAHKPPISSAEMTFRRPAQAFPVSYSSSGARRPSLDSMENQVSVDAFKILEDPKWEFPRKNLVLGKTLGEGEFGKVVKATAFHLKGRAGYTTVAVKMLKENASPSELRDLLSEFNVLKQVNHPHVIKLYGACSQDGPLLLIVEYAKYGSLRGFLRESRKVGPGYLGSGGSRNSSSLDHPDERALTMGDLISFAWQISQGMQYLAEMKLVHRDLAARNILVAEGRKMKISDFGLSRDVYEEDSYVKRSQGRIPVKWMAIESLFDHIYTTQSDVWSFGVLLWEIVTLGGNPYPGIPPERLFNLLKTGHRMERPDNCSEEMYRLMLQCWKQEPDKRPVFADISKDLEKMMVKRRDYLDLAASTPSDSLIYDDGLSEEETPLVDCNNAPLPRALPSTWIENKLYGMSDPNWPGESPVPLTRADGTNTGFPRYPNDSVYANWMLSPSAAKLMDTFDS

[6] = molecular target: T3, Ephrin type-B receptor 2 (Homo sapiens) (UniProt P29323); assay: Inhibition of human recombinant EphB2 at 500 nM related to control ULK1
T3 sequence (whole entry): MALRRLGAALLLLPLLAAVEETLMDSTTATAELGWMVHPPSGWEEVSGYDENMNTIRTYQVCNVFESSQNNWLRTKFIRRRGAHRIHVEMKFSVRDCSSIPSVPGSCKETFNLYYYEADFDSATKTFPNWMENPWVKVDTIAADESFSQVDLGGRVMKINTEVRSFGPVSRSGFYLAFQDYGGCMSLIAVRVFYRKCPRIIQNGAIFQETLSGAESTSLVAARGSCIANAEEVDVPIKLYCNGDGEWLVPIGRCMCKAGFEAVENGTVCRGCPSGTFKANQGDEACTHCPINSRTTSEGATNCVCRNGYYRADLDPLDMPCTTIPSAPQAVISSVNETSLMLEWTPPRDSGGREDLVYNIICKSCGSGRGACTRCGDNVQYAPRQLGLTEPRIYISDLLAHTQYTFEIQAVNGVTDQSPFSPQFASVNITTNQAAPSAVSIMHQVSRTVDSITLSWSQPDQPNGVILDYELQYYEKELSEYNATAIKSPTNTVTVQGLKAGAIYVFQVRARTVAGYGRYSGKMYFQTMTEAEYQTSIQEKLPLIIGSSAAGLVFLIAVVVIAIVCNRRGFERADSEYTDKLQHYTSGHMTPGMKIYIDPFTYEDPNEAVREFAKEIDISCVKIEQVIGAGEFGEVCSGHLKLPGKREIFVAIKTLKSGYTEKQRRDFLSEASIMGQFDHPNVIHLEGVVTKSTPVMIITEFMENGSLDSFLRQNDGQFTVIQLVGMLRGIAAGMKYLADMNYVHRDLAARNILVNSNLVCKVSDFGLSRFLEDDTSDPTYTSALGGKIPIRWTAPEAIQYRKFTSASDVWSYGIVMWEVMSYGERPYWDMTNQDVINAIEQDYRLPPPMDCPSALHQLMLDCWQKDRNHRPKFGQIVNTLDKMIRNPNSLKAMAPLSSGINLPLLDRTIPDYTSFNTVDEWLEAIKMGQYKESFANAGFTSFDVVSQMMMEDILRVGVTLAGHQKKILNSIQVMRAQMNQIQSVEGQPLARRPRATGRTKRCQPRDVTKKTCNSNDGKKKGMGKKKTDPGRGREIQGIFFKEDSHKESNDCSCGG

Epithelial discoidin domain-containing receptor 1 (Homo sapiens), sequence (Q08345 whole entry, the tested form may be a part): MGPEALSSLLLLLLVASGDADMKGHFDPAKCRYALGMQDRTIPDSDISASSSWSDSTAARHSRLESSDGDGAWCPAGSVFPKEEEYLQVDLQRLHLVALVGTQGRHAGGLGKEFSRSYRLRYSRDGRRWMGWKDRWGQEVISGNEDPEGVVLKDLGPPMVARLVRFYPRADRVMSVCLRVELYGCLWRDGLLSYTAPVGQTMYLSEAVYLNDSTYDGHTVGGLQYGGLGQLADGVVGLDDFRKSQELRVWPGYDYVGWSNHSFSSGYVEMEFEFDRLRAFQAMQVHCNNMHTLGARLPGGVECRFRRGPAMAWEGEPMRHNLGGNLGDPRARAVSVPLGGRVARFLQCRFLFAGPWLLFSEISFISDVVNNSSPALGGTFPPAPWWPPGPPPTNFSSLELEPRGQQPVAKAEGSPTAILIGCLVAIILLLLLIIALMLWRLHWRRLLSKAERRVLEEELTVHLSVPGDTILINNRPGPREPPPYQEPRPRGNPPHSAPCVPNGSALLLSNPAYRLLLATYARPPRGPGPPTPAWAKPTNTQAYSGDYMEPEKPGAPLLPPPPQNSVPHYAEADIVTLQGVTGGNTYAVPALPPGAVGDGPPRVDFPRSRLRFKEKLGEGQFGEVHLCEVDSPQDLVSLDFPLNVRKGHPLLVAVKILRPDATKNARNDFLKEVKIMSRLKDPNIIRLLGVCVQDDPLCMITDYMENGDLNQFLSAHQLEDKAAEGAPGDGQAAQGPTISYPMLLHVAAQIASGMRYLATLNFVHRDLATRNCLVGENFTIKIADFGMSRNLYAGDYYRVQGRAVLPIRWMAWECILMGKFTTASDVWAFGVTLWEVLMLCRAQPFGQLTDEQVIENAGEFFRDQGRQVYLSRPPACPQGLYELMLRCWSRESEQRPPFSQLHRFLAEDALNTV

## O=C(N[C@@H](C1CC1)C(F)(F)F)c1cc(-c2cnn3cc(-c4ccc(F)cc4)cnc23)cs1
[1]
  fold change (FC): 0.25

## CC(C)[C@H](NC(=O)c1cc(-c2cnn3cc(-c4ccc(OCCN5CCCCC5)cc4)cnc23)cs1)C(F)(F)F
[2]
  inhibition: 12%
[3]
  fold change (FC): 0.53
[4]
  fold change (FC): 0
[5]
  fold change (FC): 0.16

## CNC(=O)c1ccccc1Oc1nc(Nc2cc(OC)c(OC)c(OC)c2)ncc1Br
[6]
  fold change (FC): 0.2
